Consider 19 compounds from US8796466B2, “Hepatitis C virus inhibitors” (Bristol-Myers Squibb Company, priority 2009, dated 2014).

Like-named read-outs stand apart in the source and are kept apart here.

The test system of the assay is HCV 1b genotype. Put plainly: HCV Replicon assay (HCV 1b genotype). The following applies: HCV 1b genotype replicon. The class given is cell-based, Hepatitis C virus. In a few lines: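 HCV-neo replicon cells, wild-type plus lines carrying NS5A-region mutations, were exposed to compound; luciferase-reporter replicon variants were also used.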
For orientation: A replicon is a self-replicating genome or part of one, used to study replication in cells.

Where [1] appears, read: Hepatitis C virus, Effective 50% inhibitory concentration, read-out: 1b EC50.
Where [2] appears, read: Hepatitis C virus, class symbol, read-out: Range (EC50 values against HCV 1b).

One may read the EC50 as the concentration needed to bring the measured effect to its halfway point. For the compound `O=C([C@H](O)c1ccccc1)N1CCC[C@H]1c1nc(-c2ccc(Oc3cccc(-c4c[nH]c([C@@H]5CCCN5C(=O)[C@H](O)c5ccccc5)n4)c3)cc2)c[nH]1` [OL-5, (1R)-2-((2S)-2-(4-(3-(4-(2-((2S)-1-((2R)-2-hydroxy-2-phenylacetyl)-2-pyrrolidinyl)-1H-imidazol-4-yl)phenoxy)phenyl)-1H-imidazol-2-yl)-1-pyrrolidinyl)-2-oxo-1-phenylethanol], the EC50 under setting [1] came out at 80 nM and the EC50 under setting [2] was 10 to 350 nM.
On to `COC(=O)N[C@@H](C(=O)N1CCC[C@H]1c1nc(-c2ccc(Oc3cccc(-c4c[nH]c([C@@H]5CCCN5C(=O)[C@H](NC(=O)OC)c5ccccc5)n4)c3)cc2)c[nH]1)c1ccccc1` [OL-6, methyl ((1R)-2-((2S)-2-(4-(3-(4-(2-((2S)-1-((2R)-2-((methoxycarbonyl)amino)-2-phenylacetyl)-2-pyrrolidinyl)-1H-imidazol-4-yl)phenoxy)phenyl)-1H-imidazol-2-yl)-1-pyrrolidinyl)-2-oxo-1-phenylethyl)carbamate], for which, under setting [2], the EC50 was in the range of 0.002 to 0.099 nM.
Regarding `CN(C)[C@@H](C(=O)N1CCC[C@H]1c1ncc(-c2ccc(COc3ccc(-c4cnc([C@@H]5CCCN5C(=O)[C@@H](c5ccccc5)N(C)C)[nH]4)cc3)cc2)[nH]1)c1ccccc1` [OL-7, (1R)-2-((2S)-2-(4-(4-((4-(2-((2S)-1-((2R)-2-(dimethylamino)-2-phenylacetyl)-2-pyrrolidinyl)-1H-imidazol-4-yl)benzyl)oxy)phenyl)-1H-imidazol-2-yl)-1-pyrrolidinyl)-N,N-dimethyl-2-oxo-1-phenylethanamine], under setting [2], the EC50 fell in the range of 0.002 to 0.099 nM.
For the compound `COC(=O)N[C@@H](C(=O)N1CCC[C@H]1c1nc(-c2ccc(COc3ccc(-c4c[nH]c([C@@H]5CCCN5C(=O)[C@H](NC(=O)OC)c5ccccc5)n4)cc3)cc2)c[nH]1)c1ccccc1` [OL-8, methyl ((1R)-2-((2S)-2-(4-(4-((4-(2-((2S)-1-((2R)-2-((methoxycarbonyl)amino)-2-phenylacetyl)-2-pyrrolidinyl)-1H-imidazol-4-yl)benzyl)oxy)phenyl)-1H-imidazol-2-yl)-1-pyrrolidinyl)-2-oxo-1-phenylethyl)carbamate], the EC50 under setting [2] is 0.002 to 0.099 nM.
For the compound `CN(C)[C@@H](C(=O)N1CCC[C@H]1c1ncc(-c2ccc(CCc3ccc(-c4cnc([C@@H]5CCCN5C(=O)[C@@H](c5ccccc5)N(C)C)[nH]4)cc3)cc2)[nH]1)c1ccccc1` [OL-9, (1R)-2-((2S)-2-(4-(4-(2-(4-(2-((2S)-1-((2R)-2-(dimethylamino)-2-phenylacetyl)-2-pyrrolidinyl)-1H-imidazol-5-yl)phenyl)ethyl)phenyl)-1H-imidazol-2-yl)-1-pyrrolidinyl)-N,N-dimethyl-2-oxo-1-phenylethanamine], the EC50 under setting [2] lay within 0.002 to 0.099 nM.
Same read-out and setting: the result for `O=C([C@H](O)c1ccccc1)N1CCC[C@H]1c1nc(-c2ccc(CCc3ccc(-c4c[nH]c([C@@H]5CCCN5C(=O)[C@H](O)c5ccccc5)n4)cc3)cc2)c[nH]1` [OL-10, (1R,1′R)-2,2′-(1,2-ethanediylbis(4,1-phenylene-1H-imidazole-4,2-diyl(2S)-2,1-pyrrolidinediyl))bis(2-oxo-1-phenylethanol)] reads 0.002 to 0.099 nM.
Consider `COC(=O)N[C@@H](C(=O)N1CCC[C@H]1c1nc(-c2ccc(CCc3ccc(-c4c[nH]c([C@@H]5CCCN5C(=O)[C@H](NC(=O)OC)c5ccccc5)n4)cc3)cc2)c[nH]1)c1ccccc1` [OL-11, dimethyl (1,2-ethanediylbis(4,1-phenylene-1H-imidazole-4,2-diyl(2S)-2,1-pyrrolidinediyl((1R)-2-oxo-1-phenyl-2,1-ethanediyl)))biscarbamate], for which the concentration for a half-maximal effect (EC50) under setting [2] lay within 0.002 to 0.099 nM.
On to `CCNC(=O)N[C@@H](C(=O)N1CCC[C@H]1c1nc(-c2ccc(CCc3ccc(-c4c[nH]c([C@@H]5CCCN5C(=O)[C@H](NC(=O)NCC)c5ccccc5)n4)cc3)cc2)c[nH]1)c1ccccc1` [OL-12, N′,N′″-(1,2-ethanediylbis(4,1-phenylene-1H-imidazole-4,2-diyl(2S)-2,1-pyrrolidinediyl((1R)-2-oxo-1-phenyl-2,1-ethanediyl)))bis(1-ethylurea)], for which the EC50 under setting [2] is 0.002 to 0.099 nM.
For the compound `O=C(NC1CCCC1)N[C@@H](C(=O)N1CCC[C@H]1c1nc(-c2ccc(CCc3ccc(-c4cnc([C@@H]5CCCN5C(=O)[C@H](NC(=O)NC5CCCC5)c5ccccc5)[nH]4)cc3)cc2)c[nH]1)c1ccccc1` [OL-13, 1-cyclopentyl-3-((1R)-2-((2S)-2-(4-(4-(2-(4-(2-((2S)-1-((2R)-2-((cyclopentylcarbamoyl)amino)-2-phenylacetyl)-2-pyrrolidinyl)-1H-imidazol-5-yl)phenyl)ethyl)phenyl)-1H-imidazol-2-yl)-1-pyrrolidinyl)-2-oxo-1-phenylethyl)urea], under setting [2], the EC50 was 0.002 to 0.099 nM.
With `CN(C)[C@@H](C(=O)N1CCC[C@H]1c1ncc(-c2ccc(COCc3ccc(-c4cnc([C@@H]5CCCN5C(=O)[C@@H](c5ccccc5)N(C)C)[nH]4)cc3)cc2)[nH]1)c1ccccc1` [OL-14, (1R)-2-((2S)-2-(4-(4-(((4-(2-((2S)-1-((2R)-2-(dimethylamino)-2-phenylacetyl)-2-pyrrolidinyl)-1H-imidazol-5-yl)benzyl)oxy)methyl)phenyl)-1H-imidazol-2-yl)-1-pyrrolidinyl)-N,N-dimethyl-2-oxo-1-phenylethanamine], the EC50 under setting [2] is 0.1 to 0.99 nM.
With `O=C([C@H](O)c1ccccc1)N1CCC[C@H]1c1nc(-c2ccc(COCc3ccc(-c4cnc([C@@H]5CCCN5C(=O)[C@H](O)c5ccccc5)[nH]4)cc3)cc2)c[nH]1` [OL-15, (1R)-2-((2S)-2-(4-(4-(((4-(2-((2S)-1-((2R)-2-hydroxy-2-phenylacetyl)-2-pyrrolidinyl)-1H-imidazol-5-yl)benzyl)oxy)methyl)phenyl)-1H-imidazol-2-yl)-1-pyrrolidinyl)-2-oxo-1-phenylethanol], the EC50 under setting [1] is 1.1 nM and the EC50 under setting [2] was in the range of 1 to 9.9 nM.
Consider `COC(=O)N[C@@H](C(=O)N1CCC[C@H]1c1nc(-c2ccc(COCc3ccc(-c4c[nH]c([C@@H]5CCCN5C(=O)[C@H](NC(=O)OC)c5ccccc5)n4)cc3)cc2)c[nH]1)c1ccccc1` [OL-16, dimethyl (oxybis(methylene-4,1-phenylene-1H-imidazole-4,2-diyl(2S)-2,1-pyrrolidinediyl((1R)-2-oxo-1-phenyl-2,1-ethanediyl)))biscarbamate], for which, under setting [2], the EC50 was in the range of 0.002 to 0.099 nM.
For the compound `CNC(=O)N[C@@H](C(=O)N1CCC[C@H]1c1nc(-c2ccc(COCc3ccc(-c4cnc([C@@H]5CCCN5C(=O)[C@H](NC(=O)NC)c5ccccc5)[nH]4)cc3)cc2)c[nH]1)c1ccccc1` [OL-17, 1-methyl-3-((1R)-2-((2S)-2-(4-(4-(((4-(2-((2S)-1-((2R)-2-((methylcarbamoyl)amino)-2-phenylacetyl)-2-pyrrolidinyl)-1H-imidazol-5-yl)benzyl)oxy)methyl)phenyl)-1H-imidazol-2-yl)-1-pyrrolidinyl)-2-oxo-1-phenylethyl)urea], the concentration giving a half-maximal response (EC50) under setting [2] fell in the range of 0.002 to 0.099 nM.
In the case of `CCNC(=O)N[C@@H](C(=O)N1CCC[C@H]1c1nc(-c2ccc(COCc3ccc(-c4cnc([C@@H]5CCCN5C(=O)[C@H](NC(=O)NCC)c5ccccc5)[nH]4)cc3)cc2)c[nH]1)c1ccccc1` [OL-18, 1-ethyl-3-((1R)-2-((2S)-2-(4-(4-(((4-(2-((2S)-1-((2R)-2-((ethylcarbamoyl)amino)-2-phenylacetyl)-2-pyrrolidinyl)-1H-imidazol-5-yl)benzyl)oxy)methyl)phenyl)-1H-imidazol-2-yl)-1-pyrrolidinyl)-2-oxo-1-phenylethyl)urea], the EC50 under setting [2] lay within 0.002 to 0.099 nM.
`O=C(NC1CCCC1)N[C@@H](C(=O)N1CCC[C@H]1c1nc(-c2ccc(COCc3ccc(-c4cnc([C@@H]5CCCN5C(=O)[C@H](NC(=O)NC5CCCC5)c5ccccc5)[nH]4)cc3)cc2)c[nH]1)c1ccccc1` [OL-19, 1-cyclopentyl-3-((1R)-2-((2S)-2-(4-(4-(((4-(2-((2S)-1-((2R)-2-((cyclopentylcarbamoyl)amino)-2-phenylacetyl)-2-pyrrolidinyl)-1H-imidazol-5-yl)benzyl)oxy)methyl)phenyl)-1H-imidazol-2-yl)-1-pyrrolidinyl)-2-oxo-1-phenylethyl)urea]: the EC50 under setting [2] lay within 1 to 9.9 nM.
Take `CN(C)[C@@H](C(=O)N1CCC[C@H]1c1ncc(-c2ccc(COCc3cccc(-c4cnc([C@@H]5CCCN5C(=O)[C@@H](c5ccccc5)N(C)C)[nH]4)c3)cc2)[nH]1)c1ccccc1` [OL-20, (1R)-2-((2S)-2-(4-(3-(((4-(2-((2S)-1-((2R)-2-(dimethylamino)-2-phenylacetyl)-2-pyrrolidinyl)-1H-imidazol-4-yl)benzyl)oxy)methyl)phenyl)-1H-imidazol-2-yl)-1-pyrrolidinyl)-N,N-dimethyl-2-oxo-1-phenylethanamine]: the EC50 under setting [2] lay in the range of 0.1 to 0.99 nM.
`O=C([C@H](O)c1ccccc1)N1CCC[C@H]1c1nc(-c2ccc(COCc3cccc(-c4c[nH]c([C@@H]5CCCN5C(=O)[C@H](O)c5ccccc5)n4)c3)cc2)c[nH]1` [OL-21, (1R)-2-((2S)-2-(4-(3-(((4-(2-((2S)-1-((2R)-2-hydroxy-2-phenylacetyl)-2-pyrrolidinyl)-1H-imidazol-4-yl)benzyl)oxy)methyl)phenyl)-1H-imidazol-2-yl)-1-pyrrolidinyl)-2-oxo-1-phenylethanol]: the EC50 under setting [2] fell in the range of 0.1 to 0.99 nM.
Consider `COC(=O)N[C@@H](C(=O)N1CCC[C@H]1c1nc(-c2ccc(COCc3cccc(-c4c[nH]c([C@@H]5CCCN5C(=O)[C@H](NC(=O)OC)c5ccccc5)n4)c3)cc2)c[nH]1)c1ccccc1` [OL-22], for which the 50% effective concentration (EC50) (class symbol, read-out: Range (EC50 values against HCV 1b)) was in the range of 0.002 to 0.099 nM.
For `CNC(=O)N[C@@H](C(=O)N1CCC[C@H]1c1nc(-c2ccc(COCc3cccc(-c4c[nH]c([C@@H]5CCCN5C(=O)[C@H](NC(=O)NC)c5ccccc5)n4)c3)cc2)c[nH]1)c1ccccc1` [OL-23, 1-methyl-3-((1R)-2-((2S)-2-(4-(3-(((4-(2-((2S)-1-((2R)-2-((methylcarbamoyl)amino)-2-phenylacetyl)-2-pyrrolidinyl)-1H-imidazol-4-yl)benzyl)oxy)methyl)phenyl)-1H-imidazol-2-yl)-1-pyrrolidinyl)-2-oxo-1-phenylethyl)urea], the half-maximal effective concentration (EC50) under setting [2] lay in the range of 0.1 to 0.99 nM.
